Data: patent US5324648A, “Substituted isocoumarins as serine protease inhibitors and anti-inflammatory agents” (Georgia Tech Research Corporation, priority 1992, dated 1994)

Molecular target: complement protein D (Homo sapiens, UniProt P00746)
Assay: Inactivation rate of complement protein D
Type: biochemical
Details: Table II; pH 7.5, 25° C; [I] 0.05 to 1.29 mM; read-out: kobs/[I]
Procedure: Inactivation rates of serine proteases by substituted isocoumarins were measured by the incubation method. An aliquot of inhibitor (25 or 50 μl) in Me2 SO was added to a buffered enzyme solution (0.01-2.3 μM) to initiate the inactivation. Aliquots (50 μl) were withdrawn at various intervals and the residual enzymatic activity was measured. Me2 SO concentration in the reaction mixture was 8-12% (v/v). 0.1 Hepes, 0.01M CaCl2, pH 7.5 buffer was utilized for trypsin and coagulation enzymes. 0.1M Hepes, 0.5M NaCl, pH 7.5 was utilized for other serine proteases. The inhibitor concentrations are shown in all the tables. Peptide thioesters or peptide nitroanilides with appropriate sequence were used as substrates for various serine proteases. All peptide thioester hydrolysis rates were measured with assay mixtures containing 4,4'-dithiodipyridine (ε324 =19800M^-1 cm^-1; Grasetti & Murray, Arch. Biochem. Biophys. 119, pp 41-49 (1967)). Peptide 4-nitroanilide nitroanilide hydrolysis was measured at 410 nm (ε410 =8800M^-1 cm^-1; Erlanger et al., Arch. Biochem. Biophys. 95, pp 271-278 (1961)). First order inactivation rate constant (kobs) were obtained from plots of ln (vt /vo) vs time, and the correlation coefficients were greater than 0.98.
^a Conditions were 0.1M Hepes, 0.5M NaCl, pH 7.5, 8-10% Me2 SO
and 25° C. Inactivation rates were measured by incubation method.
Enzyme concentrations were as follows: protein D, 1-9 μM; C2, 0.7-1
μM; B, 1.8 μM; Bb, 0.3-0.8 μM; Cl^- s, 0.07 μM; Cl^-

Chain of complement protein D (P00746 26-253): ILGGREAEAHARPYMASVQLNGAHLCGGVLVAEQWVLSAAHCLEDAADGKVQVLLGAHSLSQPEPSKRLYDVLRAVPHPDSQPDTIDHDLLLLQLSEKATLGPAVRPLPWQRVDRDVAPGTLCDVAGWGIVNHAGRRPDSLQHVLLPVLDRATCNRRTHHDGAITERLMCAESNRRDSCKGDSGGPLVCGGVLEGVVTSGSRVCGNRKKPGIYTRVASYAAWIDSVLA

Structure (SMILES) | kinact/KI [M⁻¹ s⁻¹]
CCOc1oc(=O)c2ccccc2c1Cl [3-ethoxy-4-chloroisocoumarin, reference compound] | 0.25
COc1oc(=O)c2cc(N)ccc2c1Cl [7-amino-3-methoxy-4-chloroisocoumarin, reference compound] | 1.3
